The structures appear in SMILES notation.

Sequence of Purified human HSD1 (P28845 whole entry): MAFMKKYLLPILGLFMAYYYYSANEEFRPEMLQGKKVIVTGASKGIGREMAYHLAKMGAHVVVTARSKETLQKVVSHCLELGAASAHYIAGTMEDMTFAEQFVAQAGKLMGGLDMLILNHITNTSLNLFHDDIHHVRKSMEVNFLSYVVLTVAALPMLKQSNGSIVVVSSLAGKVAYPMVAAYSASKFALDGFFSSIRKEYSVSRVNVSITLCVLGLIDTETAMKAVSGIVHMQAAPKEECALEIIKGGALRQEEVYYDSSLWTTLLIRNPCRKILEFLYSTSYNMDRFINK

This assay addresses Purified human HSD1 (Homo sapiens, UniProt P28845). The experiment in a line: In vitro inhibition of 11β-HSD1 (time-resolved fluorescence, cortisone to cortisol). The class given is biochemical. The following applies: purified human HSD1, cortisone substrate, incubated at 37° C. for 30 min. How it is done: Purified human HSD1 was diluted in 50 mM Tris-HCl, 100 mM NaCl, 0.1 mg/ml BSA, 0.02% Lubrol, 20 mM MgCl2, 10 mM glucose 6-phosphate, 0.4 mM NADPH, 60 U/ml glucose 6-phosphate dehydrogenase to a concentration of 1.5 ug/ml (Enzyme Solution). Cortisone (100 uM) in DMSO was diluted to 1 uM with 50 mM Tris-HCl, 100 mM NaCl (Substrate Solution). Testing compounds (40 uM) in DMSO were diluted 3 fold in series in DMSO and further diluted 20 fold in Substrate Solution. Enzyme Solution (10 ul/well) was added into 384 well microtiter plates followed by diluted compound solutions (10 ul/well) and mixed well. Samples were then incubated at 37° C. for 30 min. EDTA/biotin-cortisol solution (10 ul/well) in 28 mM EDTA, 100 nM biotin-cortisol, 50 mM Tris-HCl, 100 mM NaCl was then added followed by 5 ul/well of anti-cortisol antibody (3.2 ug/ml) in 50 mM Tris-HCl, 100 mM NaCl, 0.1 mg/ml BSA and the solution was incubated at 37° C. for 30 min. Five ul per well of Eu-conjugated anti-mouse IgG (16 nM) and APC-conjugated streptavidin (160 nM) in 50 mM Tris-HCl, 100 mM NaCl, 0.1 mg/ml BSA were added and the solution was incubated at room temperature for 2 hours. Signals were quantitated by reading time-resolved fluorescence on a Victor 5 reader (Wallac).
Percent inhibition of HSD 1 activity by an agent at various concentrations was calculated by the formula % Inhibition=100*[1−(Fs−Fb)/(Ft−Fb)], where: • Fs is the fluorescence signal of the sample which included the agent, • Fb is the fluorescence signal in the absence of HSD1 and agent, • Ft is the fluorescence signal in the presence of HSD1, but no agent.
The inhibitory activities of test compounds were determined by the IC50s, or the concentration of compound that gave 50% inhibition.
Take `CC(C)c1cccc(-c2c(C(=O)N3CCCC4CCCCC43)cnn2C)c1` (stereo not shown) [Example 12, [5-(3-Isopropyl-phenyl)-1-methyl-1H-py-razol-4-yl]-(octa-hydro-quinolin-1-yl)-meth-anone]: 59 nM corresponded to half-maximal inhibition (IC50). The value for `Cn1ncc(C(=O)N2CCCC3CCCCC32)c1-c1cnc2ccccc2c1` (stereo not shown) [Example 19] was 189 nM; that for `Cn1ncc(C(=O)N2CCCC3CCCCC32)c1-c1cccc(C=O)c1` (stereo not shown) [Example 21, 3-[2-Methyl-4-(octa-hydro-quinoline-1-carbo-nyl)-2H-pyra-zol-3-yl]-benzaldehyde] was 1000 nM. The figure for `CSc1ccc(-c2c(C(=O)N3CCCC4CCCCC43)cnn2C)cc1` (stereo not shown) [Example 33] is 78 nM; for `Cn1ncc(C(=O)N2CCC(Cl)C3CCCCC32)c1-c1ccccc1` (stereo not shown) [Example 36] it is 600 nM.

With `Cn1ncc(C(=O)N2CCCC3CCCCC32)c1-c1ccc(F)c(Cl)c1` (stereo not shown) [Example 39, [5-(3-Chloro-4-fluoro-phenyl)-1-meth-yl-1H-pyrazol-4-yl]-(octa-hydro-quinolin-1-yl)-meth-anone], the IC50 is 208 nM. The figure for `Cc1c(Cl)cccc1-c1c(C(=O)N2CCCC3CCCCC32)cnn1C` (stereo not shown) [Example 46, [5-(3-Chloro-2-meth-yl-phenyl)-1-meth-yl-1H-pyrazol-4-yl]-(octa-hydro-quinolin-1-yl)-meth-anone] is 38 nM; for `Cn1ncc(C(=O)N2CCCC3CCCCC32)c1-c1cccc(C(F)(F)F)c1` (stereo not shown) [Example 49, [1-Methyl-5-(3-tri-fluoromethyl-phenyl)-1H-py-razol-4-yl]-(octa-hydro-quinolin-1-yl)-meth-anone] it is 160 nM; for `Cn1ncc(C(=O)N2CCCC3CCCCC32)c1-c1ccc(C(F)(F)F)c(Cl)c1` (stereo not shown) [Example 52, [5-(3-Chloro-4-tri-fluoromethyl-phenyl)-1-meth-yl-1H-pyra-zol-4-yl]-(octa-hydro-quinolin-1-yl)-meth-anone] it is 195 nM. The figure for `Cn1ncc(C(=O)N2CCCC3CCCCC32)c1-c1ccc([N+](=O)[O-])cc1` (stereo not shown) [Example 55, [1-Methyl-5-(4-ni-tro-phenyl)-1H-pyra-zol-4-yl]-(octa-hydro-quinolin-1-yl)-methanone] is 552 nM; for `Cn1ncc(C(=O)N2CCCC3CCCCC32)c1-c1cccc(O)c1` (stereo not shown) [Example 59, [5-(3-Hydroxy-phe-nyl)-1-methyl-1H-pyra-zol-4-yl]-(octa-hydro-quinolin-1-yl)-meth-anone] it is 700 nM. The value for `Cn1ncc(C(=O)N2CCCC3CCCCC32)c1-c1ccc(CO)cc1` (stereo not shown) [Example 67, [5-(4-Hydroxy-methyl-phenyl)-1-meth-yl-1H-pyra-zol-4-yl]-(octa-hydro-quinolin-1-yl)-meth-anone] was 121 nM; that for `CCOc1ccc(-c2c(C(=O)N3CCCC4CCCCC43)cnn2C)c(Cl)c1` (stereo not shown) [Example 82, [5-(2-Chloro-4-eth-oxy-phenyl)-1-meth-yl-1H-pyrazol-4-yl]-(octa-hydro-quinolin-1-yl)-meth-anone] was 21 nM; that for `Cn1ncc(C(=O)NC2CCCCCCC2)c1-n1cccc1` [Example 96, 1-Methyl-5-pyrrol-1-yl-1H-py-razole-4-carboxylic acidcyclooctylamide] was 58 nM.

`Cn1ncc(C(=O)N2CCCC(Cc3ccccc3)C2)c1-n1cccc1` (stereo not shown) [Example 106, (3-Benzyl-piperidin-1-yl)-(1-meth-yl-5-pyrrol-1-yl-1H-py-razol-4-yl)-methanone] showed a 50% inhibitory concentration (IC50) of 1480 nM. `CCC1CCCCN1C(=O)c1cnn(C)c1-c1ccccc1` (stereo not shown) [Example 107, (2-Ethyl-piperidin-1-yl)-(1-meth-yl-5-phe-nyl-1H-pyrazol-4-yl)-methanone] gave an IC50 of 260 nM.

As a reminder, the IC50 is the concentration needed to halve the response being measured. Low readings indicate greater potency in that assay, high ones weaker potency in that assay.

For the origin of these results see patent publication US7345058B2, “Pyrazoles” (Hoffmann-La Roche Inc., priority 2005, dated 2008).
